Experimental findings from PMC4417724 (Nature, 2014) are described below.

Assay [1] deals with FLAG-RTCB (human tRNA ligase complex) with recombinant Archease (Homo sapiens, UniProt Q9Y3I0). In words: radiolabelled guanylation, SDS-PAGE autoradiography. Particulars: covalent RTCB-guanylate intermediate; labelled compound; Archease 10 μM, ATP, Mg(OAc)2, pH 7.5, 37 °C. Format: biochemical.
Assay [2] has as its target recombinant hexahistidine tagged human Archease (human). Briefly: SPR.

FLAG-RTCB (human tRNA ligase complex) with recombinant Archease, sequence (Q9Y3I0 whole entry): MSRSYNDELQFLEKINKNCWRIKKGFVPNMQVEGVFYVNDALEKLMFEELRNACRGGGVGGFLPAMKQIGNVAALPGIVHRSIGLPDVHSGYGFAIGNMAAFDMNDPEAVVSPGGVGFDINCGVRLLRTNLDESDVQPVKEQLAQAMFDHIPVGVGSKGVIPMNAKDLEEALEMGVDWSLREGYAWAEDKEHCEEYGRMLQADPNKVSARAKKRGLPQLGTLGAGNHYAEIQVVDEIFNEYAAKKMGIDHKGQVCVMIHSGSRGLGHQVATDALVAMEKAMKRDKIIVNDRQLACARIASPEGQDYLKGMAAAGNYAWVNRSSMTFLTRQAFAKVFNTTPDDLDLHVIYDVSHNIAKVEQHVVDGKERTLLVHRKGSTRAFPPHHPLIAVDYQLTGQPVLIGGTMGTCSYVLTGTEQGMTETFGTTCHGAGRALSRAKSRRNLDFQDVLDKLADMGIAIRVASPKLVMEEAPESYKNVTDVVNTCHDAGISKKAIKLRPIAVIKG
FLAG-RTCB (human tRNA ligase complex) with recombinant Archease, sequence (Q8IWT0 2-167 partner): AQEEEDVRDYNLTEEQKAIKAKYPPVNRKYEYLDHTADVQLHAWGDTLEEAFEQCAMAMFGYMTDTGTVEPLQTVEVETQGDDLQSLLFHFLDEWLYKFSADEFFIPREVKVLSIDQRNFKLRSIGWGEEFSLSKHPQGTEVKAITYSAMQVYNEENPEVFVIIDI
FLAG-RTCB (human tRNA ligase complex) with recombinant Archease, sequence (Q92499 whole entry partner): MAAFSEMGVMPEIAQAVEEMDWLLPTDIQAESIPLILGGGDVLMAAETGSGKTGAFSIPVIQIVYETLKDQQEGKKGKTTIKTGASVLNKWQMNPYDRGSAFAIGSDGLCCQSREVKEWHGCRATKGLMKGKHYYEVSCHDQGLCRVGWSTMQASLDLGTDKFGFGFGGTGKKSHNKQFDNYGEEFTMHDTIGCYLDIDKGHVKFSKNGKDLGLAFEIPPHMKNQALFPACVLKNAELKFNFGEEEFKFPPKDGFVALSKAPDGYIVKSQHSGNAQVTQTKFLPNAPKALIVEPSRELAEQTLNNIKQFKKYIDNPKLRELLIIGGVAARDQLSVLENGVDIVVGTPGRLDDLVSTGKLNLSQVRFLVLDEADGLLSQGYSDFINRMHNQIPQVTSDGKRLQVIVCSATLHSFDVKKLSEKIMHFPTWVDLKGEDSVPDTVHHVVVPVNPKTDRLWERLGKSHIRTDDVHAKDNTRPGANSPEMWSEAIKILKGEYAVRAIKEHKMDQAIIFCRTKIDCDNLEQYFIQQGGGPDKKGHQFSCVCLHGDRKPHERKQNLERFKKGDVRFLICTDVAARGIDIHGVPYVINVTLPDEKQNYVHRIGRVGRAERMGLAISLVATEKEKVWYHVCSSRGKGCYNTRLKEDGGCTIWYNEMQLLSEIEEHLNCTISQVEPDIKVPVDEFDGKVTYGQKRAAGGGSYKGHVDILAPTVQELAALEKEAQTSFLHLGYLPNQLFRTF
FLAG-RTCB (human tRNA ligase complex) with recombinant Archease, sequence (Q52LJ0 whole entry partner): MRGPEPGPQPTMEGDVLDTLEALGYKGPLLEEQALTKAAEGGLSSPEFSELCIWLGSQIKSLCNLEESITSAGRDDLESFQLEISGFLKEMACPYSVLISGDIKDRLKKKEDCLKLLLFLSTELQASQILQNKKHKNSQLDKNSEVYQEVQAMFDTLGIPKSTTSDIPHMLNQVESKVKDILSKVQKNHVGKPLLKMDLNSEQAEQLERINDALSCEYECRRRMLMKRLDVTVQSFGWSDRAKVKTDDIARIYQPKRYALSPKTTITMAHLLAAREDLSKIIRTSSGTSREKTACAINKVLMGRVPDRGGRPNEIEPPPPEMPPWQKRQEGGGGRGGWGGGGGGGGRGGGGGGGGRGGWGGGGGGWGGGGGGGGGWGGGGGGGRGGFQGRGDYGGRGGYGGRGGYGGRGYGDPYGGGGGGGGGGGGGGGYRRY
FLAG-RTCB (human tRNA ligase complex) with recombinant Archease, sequence (Q9BVC5 whole entry partner): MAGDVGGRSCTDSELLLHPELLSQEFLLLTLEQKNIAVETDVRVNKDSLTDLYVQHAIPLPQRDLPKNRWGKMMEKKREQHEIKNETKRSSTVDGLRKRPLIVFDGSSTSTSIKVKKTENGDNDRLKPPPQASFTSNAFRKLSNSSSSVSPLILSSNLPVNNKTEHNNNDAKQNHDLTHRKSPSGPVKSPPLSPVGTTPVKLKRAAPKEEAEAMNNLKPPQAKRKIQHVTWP
FLAG-RTCB (human tRNA ligase complex) with recombinant Archease, sequence (Q9Y224 whole entry partner): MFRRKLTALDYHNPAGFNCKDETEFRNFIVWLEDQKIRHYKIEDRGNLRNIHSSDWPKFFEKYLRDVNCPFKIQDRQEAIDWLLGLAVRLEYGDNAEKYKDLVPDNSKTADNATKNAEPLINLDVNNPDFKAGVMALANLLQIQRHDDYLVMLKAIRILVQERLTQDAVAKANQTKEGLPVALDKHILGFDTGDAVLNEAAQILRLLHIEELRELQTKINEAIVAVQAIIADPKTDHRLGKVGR

Take `Nc1nc2c(ncn2[C@@H]2O[C@H](COP(=O)(O)OP(=O)(O)OP(=O)(O)O)[C@@H](O)[C@H]2O)c(=O)[nH]1` [GTP]: the “radiolabelled guanylation, SDS-PAGE autoradiography” value in assay [1] is given as “Formation of a radiolabeled band corresponding to guanylated human FLAG-RTCB required the addition of WT Archease”.
As for “FLAG-RTCB complexes (human tRNA ligase complex affinity-purified by FLAG-RTCB) (from UniProt Q9Y3I0;Q92499;Q52LJ0;Q9Y224;Q9BVC5)”, the Kd in assay [2] was 1.8 nM.
